From ChEMBL document CHEMBL4699557, “Structure activity relationship of novel antiviral nucleosides against Enterovirus A71” (Bioorg Med Chem Lett, 2020)

Columns and labels:
Vero 76 [1] = test: Cytotoxicity against monkey Vero 76 cells by neutral red uptake assay; format: cell-based; settings: chlorocebus sabaeus, vero 76
Vero 76 [2] = test: Cytotoxicity against monkey Vero 76 cells by microscopic analysis; format: cell-based; settings: chlorocebus sabaeus, vero 76
Enterovirus A71 [3] = test: microbe, parasite or virus in culture; format: functional, organism-based; settings: Enterovirus A, Tainin/4643/98, Vero 76, 72 h
Enterovirus A71 [4] = test: microbe, parasite or virus in culture; format: functional, organism-based, Tainin/4643/98, Vero 76; settings: Enterovirus A, Tainin/4643/98, Vero 76, 72 h
in vitro [5] = settings: monkey, Vero 76 cells
in vitro [6] = settings: monkey, Vero 76 cells; remark: listed apart in the source

SMILES	CC50 (Vero 76 [1])	CC50 (Vero 76 [2])	EC50 (Enterovirus A71 [3])	EC50 (Enterovirus A71 [4])	selectivity ratio (in vitro [5])	selectivity ratio (in vitro [6])
OC[C@H]1O[C@@H](n2cnc3c(NC(C4CC4)C4CC4)ncnc32)[C@H](O)[C@@H]1O	> 50 µM	> 50 µM	> 50 µM	> 50 µM		
O[C@@H]1[C@H](O)[C@@H]2C[C@@H]2[C@H]1n1ccc2c(NC(C3CC3)C3CC3)nc(I)nc21	44 µM	100 µM	32 µM	> 100 µM	1.4	
CC(C)(O)[C@@H](Nc1nc(Cl)nc2c1ccn2[C@H]1[C@H](O)[C@H](O)[C@]2(CO)C[C@H]12)C1CC1	63 µM	> 100 µM	> 63 µM	> 100 µM		
CC(C)[C@@H](Nc1nc(Cl)nc2c1ncn2[C@H]1[C@H](O)[C@H](O)[C@]2(CN)C[C@H]12)C1CC1	32 µM	32 µM	> 32 µM	> 32 µM		
Nc1nc(Cl)nc2c1ncn2[C@H]1[C@H](O)[C@H](O)[C@]2(CO)C[C@H]12	36 µM	> 50 µM	> 36 µM	> 50 µM		
OC[C@H]1O[C@@H](n2cnc3c(NC(C4CCC4)C4CCC4)nc(Cl)nc32)[C@H](O)[C@@H]1O	27 µM	32 µM	> 27 µM	> 32 µM		
OC[C@@]12C[C@@H]1[C@@H](n1cnc3c(NC(C4CCC4)C4CCC4)nc(Cl)nc31)[C@H](O)[C@@H]2O	28 µM	50 µM	> 28 µM	16 µM		3.1
CCOC(=O)[C@@]12C[C@@H]1[C@@H](n1cnc3c(NC(C4CC4)C4CC4)nc(Cl)nc31)[C@H](O)[C@@H]2O	1.5 µM	> 50 µM	> 1.5 µM	> 50 µM		
O=C(O)c1cnn(-c2nc(NC(C3CC3)C3CC3)c3ncn([C@H]4[C@H](O)[C@H](O)[C@@H]5C[C@@H]54)c3n2)c1	50 µM	> 50 µM	> 50 µM	> 50 µM		
O[C@@H]1[C@H](O)[C@@H]2C[C@@H]2[C@H]1n1cnc2c(NC(C3CC3)C3CC3)ncnc21	> 50 µM	> 50 µM	> 50 µM	> 50 µM		
CC[C@@H](Nc1nc(SC)nc2c1ccn2[C@H]1[C@H](O)[C@H](O)[C@]2(CO)C[C@H]12)C1CC1	> 50 µM	> 50 µM	2.3 µM		> 22	> 3.1
O[C@@H]1[C@H](O)[C@@H]2C[C@@H]2[C@H]1n1cnc2c(N[C@@H](CC3CC3)C3CC3)nc(Cl)nc21	7.6 µM	> 50 µM	> 7.6 µM	18 µM		> 2.8
OC[C@H]1O[C@@H](n2cnc3c(NC(C4CCC4)C4CCC4)ncnc32)[C@H](O)[C@@H]1O	> 100 µM	> 100 µM	> 100 µM	> 100 µM		
OC[C@@]12C[C@@H]1[C@@H](n1cnc3c(N[C@@H](C4CCC4)C4CC4)nc(Cl)nc31)[C@H](O)[C@@H]2O	13 µM		8 µM	16 µM	1.6	> 3.1
CSC[C@@]12C[C@@H]1[C@@H](n1cnc3c(N[C@H](C(C)C)C4CC4)nc(Cl)nc31)[C@H](O)[C@@H]2O	32 µM	32 µM	8.4 µM	> 32 µM	3.8	
O[C@@H]1[C@H](O)[C@@H]2C[C@@H]2[C@H]1n1cnc2c(NCc3ccccc3F)nc(Cl)nc21	23 µM	> 50 µM	> 23 µM	> 50 µM		
CSc1nc(N[C@@H](C2CC2)C(C)(C)O)c2ccn([C@H]3[C@H](O)[C@H](O)[C@]4(CO)C[C@H]34)c2n1	> 100 µM	> 100 µM	> 100 µM	> 100 µM		

SMILES	CC50 (Vero 76 [1])	CC50 (Vero 76 [2])	EC50 (Enterovirus A71 [3])	EC50 (Enterovirus A71 [4])	selectivity ratio (in vitro [5])	selectivity ratio (in vitro [6])
CSc1nc(N[C@H](C(C)C)C2CC2)c2ncn([C@H]3[C@H](O)[C@H](O)[C@]4(CO)C[C@H]34)c2n1	> 100 µM	> 100 µM	66 µM		> 1.5	
CC(C)[C@H](Nc1nc(Cl)nc2c1ncn2[C@H]1[C@H](O)[C@H](O)[C@]2(CO)C[C@H]12)C1CC1	> 50 µM	> 50 µM	2.3 µM	12 µM		
NC(=O)c1ncn([C@H]2[C@H](O)[C@H](O)[C@]3(CO)C[C@H]23)n1	> 50 µM	> 50 µM	> 50 µM	> 50 µM		
O[C@@H]1[C@H](O)[C@@H]2C[C@@H]2[C@H]1n1cnc2c(NC(C3CCC3)C3CCC3)nc(Cl)nc21	17 µM	16 µM	> 17 µM			
CC(C)C(Nc1nc(Cl)nc2c1ncn2[C@H]1[C@H](O)[C@H](O)[C@]2(CO)C[C@H]12)C(C)C	> 100 µM	> 100 µM	32 µM	32 µM		
NCCCNC(=O)[C@@]12C[C@@H]1[C@@H](n1cnc3c(NC(C4CC4)C4CC4)nc(Cl)nc31)[C@H](O)[C@@H]2O	50 µM	> 50 µM	> 50 µM	> 50 µM		
O=C(O)[C@@]12C[C@@H]1[C@@H](n1cnc3c(NC(C4CC4)C4CC4)nc(Cl)nc31)[C@H](O)[C@@H]2O	50 µM	> 50 µM	> 50 µM	> 50 µM		
CC(C)(O)[C@@H](Nc1nc(Cl)nc2c1ncn2[C@H]1[C@H](O)[C@H](O)[C@]2(CO)C[C@H]12)C1CC1	> 100 µM	> 100 µM	> 100 µM	> 100 µM		
NCCNC(=O)[C@@]12C[C@@H]1[C@@H](n1cnc3c(NC(C4CC4)C4CC4)nc(Cl)nc31)[C@H](O)[C@@H]2O	50 µM	> 50 µM	> 50 µM	> 50 µM		
CC(C)(C)[C@H](Nc1nc(Cl)nc2c1ncn2[C@H]1[C@H](O)[C@H](O)[C@]2(CO)C[C@H]12)C1CC1	> 100 µM	> 100 µM	31 µM	32 µM		
NNc1nc(NC(C2CC2)C2CC2)c2ncn([C@H]3[C@H](O)[C@H](O)[C@@H]4C[C@@H]43)c2n1	50 µM	> 50 µM	> 50 µM	> 50 µM		
O[C@@H]1[C@H](O)[C@@H]2C[C@@H]2[C@H]1n1cnc2c(NC(C3CC3)C3CC3)nc(I)nc21	50 µM	> 50 µM	> 50 µM	> 50 µM		
O[C@@H]1[C@H](O)[C@@H]2C[C@@H]2[C@H]1n1cnc2c(NCC(C3CC3)C3CC3)nc(Cl)nc21	10 µM	> 50 µM	> 10 µM	> 50 µM		
CC[C@H](Nc1nc(Cl)nc2c1ncn2[C@H]1[C@H](O)[C@H](O)[C@]2(CO)C[C@H]12)C1CC1	> 50 µM	> 50 µM	5.3 µM		> 9.4	> 3.1
COC(=O)c1cnn(-c2nc(NC(C3CC3)C3CC3)c3ncn([C@H]4[C@H](O)[C@H](O)[C@@H]5C[C@@H]54)c3n2)c1	50 µM	> 50 µM	> 50 µM	> 50 µM		
OC[C@@]12C[C@@H]1[C@@H](n1cnc3c(NCc4ccccc4)nc(Cl)nc31)[C@H](O)[C@@H]2O	> 100 µM	> 100 µM	> 100 µM	> 100 µM		
